Reference: US4542123A (Massachusetts Institute of Technology, priority 1982, dated 1985)

Assay: Plasma amino acid levels after glucose ingestion (Example I, Table 1)
Format: in vivo, human
Experimental: Six healthy, non-obese, fasting subjects each received, on different days 0, 6, 12.5, 25 or 50 g of glucose (Glucola) in a total volume of 100 ml.
Following a protocol approved by the Massachusetts Institute of Technology Committee on the Use of Humans as Experimental Subjects, 6 healthy volunteer outpatients, aged 25-33 years, participated in the study; 3 were males and 3 females. Mean weight was 60 kg for the women and 70 for the men; all subjects were within 10% of their ideal body weight as determined by Metropolitan Life Insurance Company tables. […] Subjects were asked to take meals rich in carbohydrate content (about 300 g/day) for 3 days before beginning the study. On 5 separate days, each subject fasted from 8 p.m. until 9 the next morning and then received a load of 0, 6, 12.5, 25 or 50 g of glucose (caffeine-free glucola) dissolved in water in a total volume of 100 ml; the order of doses was randomized. Venous blood samples were drawn from the antecubital vein through an indwelling catheter at 0, 60 and 120 min for all doses and additionally at 30 and 180 min for the 12.5, 25 and 50 g doses. Blood was collected in heparanized tubes; after centrifugation plasma was stored at -20° C. until analyzed. […] Glucose was analyzed spectrophotometrically after reaction with O-toluidine in hot acidic acid (Sigma Bulletin #635;15). Insulin was measured using a commercial radioimmunoassay kit by a double antibody method (Bio-RIA, Louisville, Ky.). Plasma tryptophan was measured fluorometrically on 20 μl plasma aliquots by the method of Denckla and Dewey, J. Lab. Clin. Med. 69: 160-169, 1967, as modified by Lehman, Scand. J. Clin. Lab. Invest. 28: 49-55, 1971. Branched-chain amino acids and aromatic amino acids were measured in 500 μl aliquots of plasma, deproteinized with sulfosalicylic acid, using a Beckman amino acid analyzer (Beckman Instruments, Palo Alto, Calif., Model 119C).
Data, given as means ±SE errors, were analyzed by two-way analysis of variance; factors compared were dose and time. The Scheffe test was employed to test the statistical significance of differences; p<0.05 was considered significant. Areas under the curves were evaluated by the method of trapezoid approximation. Student tests for paired data were used to evaluate the significance of changes in individual amino acids. Amino acid concentrations after treatments for each subject were also expressed as a percentage of that day's pretreatment levels; mean percent changes were then calculated for each treatment and time interval.
Sum of the LNAA: total concentration of leucine, isoleucine, valine,
the sum of the LNAA, measured 0, 60 and 120 min after 6 nonobese, fasting
subjects ingested 0, 6, 12.5, 25 or 50 g of glucose. All plasma amino
acids, except tryptophan, were measured on a Beckman amino acid analyzer.
Tryptophan was measured by the method of Denckla and Dewey. Data are
expressed as means ± S.E.M.

## O=C[C@H](O)[C@@H](O)[C@H](O)[C@H](O)CO [Glucose, glucose]
6-50 g glucose
  Absolute leucine concentrations: decreased significantly after 6-50 g
6 g of glucose
  LNAA concentrations, some subjects: transiently decreased LNAA concentrations
12.5-50 g glucose
  All other amino acids (absolute concentrations): decreased significantly after 12.5-50 g
12.5-50 g glucose, subjects 2 and 4, not robust for other subjects
  Relationship between rise in plasma insulin and fall in LNAA (areas under the curve): clear inverse linear relationship
25 and 50 g, 60 and 120 min, P<0.05
  Decrease of plasma LNAA vs 0 and 6 g doses: significantly greater than those following the 0 and 6 g doses
50 g glucose, 120 min
  Decrease of branched-chain amino acids: 35-41%
  Decrease of methionine: 31%
  Decrease of phenylalanine and tyrosine: 29-31%
  Decrease of tryptophan: 23%
50 g vs 25 g glucose
  Percent reduction in plasma LNAA, 50-g vs 25-g dose: not consistently associated with a greater percent reduction in plasma LNAA
50 g vs 25 g glucose, 120 min, zero-time LNAA also lower
  Absolute concentrations of amino acids, 50-g vs 25-g dose: lower absolute concentrations of the amino acids than the 25-g dose after 120 min
60 and 120 min
  Plasma LNAA concentrations (percent of pre-treatment): dose-related depression of plasma LNAA concentrations
120 min, P<0.01
  Correlation (r) of glucose dose with mean percent decrease in LNAA: 0.80
After 50 g of glucose
  Decrease of branched-chain amino acids: 35-41%
  Fall of plasma tyrosine concentrations: 23%
  Ratio of plasma tyrosine to other plasma LNAA: increased significantly
After all treatments (0-50 g glucose)
  Absolute isoleucine concentrations: decreased significantly with time after all treatments
Any glucose dose
  Tyrosine/LNAA ratio: did not change significantly
Glucose 6 g, 0 min
  Plasma Iso level: 60 ± 7 nmol/mL
  Plasma LNAA (sum): 522 ± 47 nmol/mL
  Plasma Leu level: 113 ± 11 nmol/mL
  Plasma Met level: 24 ± 4 nmol/mL
  Plasma Phe level: 50 ± 3 nmol/mL
  Plasma Trp level: 46 ± 4 nmol/mL
  Plasma Tyr level: 57 ± 8 nmol/mL
  Plasma Val level: 220 ± 19 nmol/mL
  Trp/LNAA: .088
Glucose 6 g, 60 min
  Plasma Iso level: 51 ± 4 nmol/mL
  Plasma Leu level: 100 ± 12 nmol/mL
  Plasma Met level: 21 ± 3 nmol/mL
  Plasma Phe level: 46 ± 2 nmol/mL
  Plasma Trp level: 43 ± 4 nmol/mL
  Plasma Tyr level: 51 ± 7 nmol/mL
  Plasma Val level: 201 ± 15 nmol/mL
  Trp/LNAA: .092
Glucose 6 g, 120 min
  Plasma Iso level: 51 ± 5 nmol/mL
  Plasma LNAA (sum): 471 ± 37 nmol/mL
  Plasma Leu level: 101 ± 9 nmol/mL
  Plasma Met level: 22 ± 3 nmol/mL
  Plasma Phe level: 47 ± 3 nmol/mL
  Plasma Trp level: 41 ± 4 nmol/mL
  Plasma Tyr level: 50 ± 6 nmol/mL
  Plasma Val level: 200 ± 16 nmol/mL
  Trp/LNAA: .086
Glucose 12.5 g, 0 min
  Plasma Iso level: 65 ± 5 nmol/mL
  Plasma LNAA (sum): 574 ± 15 nmol/mL
  Plasma Leu level: 117 ± 10 nmol/mL
  Plasma Met level: 27 ± 2 nmol/mL
  Plasma Phe level: 54 ± 4 nmol/mL
  Plasma Trp level: 45 ± 2 nmol/mL
  Plasma Tyr level: 58 ± 4 nmol/mL
  Plasma Val level: 255 ± 47 nmol/mL
  Trp/LNAA: .079
Glucose 12.5 g, 60 min
  Plasma Iso level: 53 ± 4 nmol/mL
  Plasma LNAA (sum): 501 ± 66 nmol/mL
  Plasma Leu level: 96 ± 10 nmol/mL
  Plasma Met level: 25 ± 1 nmol/mL
  Plasma Phe level: 50 ± 3 nmol/mL
  Plasma Trp level: 40 ± 1 nmol/mL
  Plasma Tyr level: 52 ± 3 nmol/mL
  Plasma Val level: 226 ± 48 nmol/mL
  Trp/LNAA: .080
Glucose 12.5 g, 120 min
  Plasma Iso level: 48 ± 3 nmol/mL
  Plasma LNAA (sum): 582 ± 49 nmol/mL
  Plasma Leu level: 95 ± 9 nmol/mL
  Plasma Met level: 23 ± 1 nmol/mL
  Plasma Phe level: 46 ± 2 nmol/mL
  Plasma Trp level: 41 ± 1 nmol/mL
  Plasma Tyr level: 50 ± 3 nmol/mL
  Plasma Val level: 221 ± 98 nmol/mL
  Trp/LNAA: .084
